Test [1] concerns the target Interleukin-1 receptor-associated kinase 1 (Homo sapiens) (UniProt P51617). Description: Inhibition of recombinant human IRAK1 (194 to end residues) assessed as residual activity at 10 uM using myelin basic protein as substrate measured after 40 mins in presence of [gamma33P]ATP by scintillation counting method.
For test [2], the target named is Fibroblast growth factor receptor 2 (Homo sapiens) (UniProt P21802). Briefly: Inhibition of recombinant human FGFR2 (456 to 770 residues) assessed as residual activity at 10 uM using poly(Glu, Tyr) 4:1 as substrate measured after 40 mins in presence of [gamma33P]ATP by scintillation counting method.
The target in test [3] is Histone-lysine N-methyltransferase EZH2 (Homo sapiens) (UniProt Q15910). Briefly: Inhibition of EZH2 (unknown origin) at 1 uM relative to control.
Test [4] has as its target cAMP-dependent protein kinase catalytic subunit PRKX (Homo sapiens) (UniProt P51817). Briefly: Inhibition of recombinant full-length human PrKX assessed as residual activity at 10 uM using RRRLSFAEPG as substrate measured after 40 mins in presence of [gamma33P]ATP by scintillation counting method.
In test [5] the target is Ephrin type-B receptor 4 (Homo sapiens) (UniProt P54760). Description: Inhibition of recombinant human EphB4 (561 to end residues) assessed as residual activity at 10 uM using poly (Glu, Tyr) 4:1 as substrate measured after 40 mins in presence of [gamma33P]ATP by scintillation counting method.
Test [6] concerns the target Ephrin type-A receptor 8 (Homo sapiens) (UniProt P29322). Briefly: Inhibition of recombinant human EphA8 (615 to 911 residues) assessed as residual activity at 10 uM using KTFCGTPEYLAPEVRREPRILSEEEQEMFRDFDYIADWC as substrate measured after 40 mins in presence of [gamma33P]ATP by scintillation counting method.
In test [7] the test system is SW-620. Description: Induction of apoptosis in human SW620 cells assessed as increase in cleaved PARP expression up to 200 nM measured after 48 hrs by Western blot analysis. Format: functional, cell-based. Background: In western blotting, separated proteins are transferred to a membrane and probed.
Test [8] addresses Tyrosine-protein kinase ITK/TSK (Homo sapiens) (UniProt Q08881). Briefly: Inhibition of recombinant human ITK (352 to 617 residues) assessed as residual activity at 10 uM using myelin basic protein as substrate measured after 40 mins in presence of [gamma33P]ATP by scintillation counting method.
Test [9] addresses Receptor-type tyrosine-protein kinase FLT3 (Homo sapiens) (UniProt P36888). Description: Inhibition of recombinant human Flt3 (564 to end residues) assessed as residual activity at 10 uM using EAIYAAPFAKKK as substrate measured after 40 mins in presence of [gamma33P]ATP by scintillation counting method.
For test [10], the target named is cGMP-dependent protein kinase 1 (Homo sapiens) (UniProt Q13976). Description: Inhibition of recombinant full-length human PKG1beta assessed as residual activity at 10 uM using RRRLSFAEPG as substrate measured after 40 mins in presence of [gamma33P]ATP by scintillation counting method.
Test [11] has as its target Macrophage-stimulating protein receptor (Homo sapiens) (UniProt Q04912). Briefly: Inhibition of human Ron (983 to end residues) using GGMEDIYFEFMGGKKK as substrate measured after 40 mins in presence of [gamma33P]ATP by scintillation counting method. Set-up: scale not given: the % may be the effect or the level left.
Test [12] addresses Mitogen-activated protein kinase 10 (Homo sapiens) (UniProt P53779). Description: Inhibition of recombinant full-length human JNK3 assessed as residual activity at 10 uM using peptide substrate measured after 40 mins in presence of [gamma33P]ATP by scintillation counting method.
The test system of test [13] is Tyrosine-protein kinase ABL1 (Homo sapiens), P00519 [Y253F]. Briefly: Inhibition of recombinant human ABL Y253F mutant (27 to end residues) assessed as residual activity at 10 uM using EAIYAAPFAKKK as substrate measured after 40 mins in presence of [gamma33P]ATP by scintillation counting method.
The test system of test [14] is Angiopoietin-1 receptor (Homo sapiens), Q02763 [Q939H,Q940H,Y897S]. Briefly: Inhibition of human Tie2 Q939H/Q940H/Y897S mutant (771 to end residues) using EFPIYDFLPAKKK as substrate measured after 40 mins in presence of [gamma33P]ATP by scintillation counting method. On the set-up: scale not given: the % may be the effect or the level left.
Test [15] addresses Ephrin type-B receptor 3 (Homo sapiens) (UniProt P54753). Briefly: Inhibition of recombinant human EphB3 (599 to 920 residues) assessed as residual activity at 10 uM using poly (Glu, Tyr) 4:1 as substrate measured after 40 mins in presence of [gamma33P]ATP by scintillation counting method.
Test [16] has as its system Mast/stem cell growth factor receptor Kit (Homo sapiens), P10721 [D816V]. Description: Inhibition of recombinant human c-Kit D816V mutant (544 to end residues) assessed as residual activity at 10 uM using poly(Glu, Tyr) 4:1 as substrate measured after 40 mins in presence of [gamma33P]ATP by scintillation counting method.
In test [17] the target is Dual specificity protein kinase CLK4 (Homo sapiens) (UniProt Q9HAZ1). Description: Inhibition of recombinant human CLK4 (128 to end residues) assessed as residual activity at 10 uM using YRRAAVPPSPSLSRHSSPHQS(p)EDEEE as substrate measured after 40 mins in presence of [gamma33P]ATP by scintillation counting method.
The target in test [18] is MAP kinase-activated protein kinase 3 (Homo sapiens) (UniProt Q16644). Description: Inhibition of recombinant human MAPKAPK3 (2 to end residues) assessed as residual activity at 10 uM using KKLNRTLSVA as substrate measured after 40 mins in presence of [gamma33P]ATP by scintillation counting method.
The target in test [19] is Ribosomal protein S6 kinase alpha-3 (Homo sapiens) (UniProt P51812). Description: Inhibition of human Rsk2 (2 to end residues) using KKKNRTLSVA as substrate measured after 40 mins in presence of [gamma33P]ATP by scintillation counting method. On the set-up: scale not given: the % may be the effect or the level left.
Test [20] has as its target Insulin receptor (Homo sapiens) (UniProt P06213). Description: Inhibition of recombinant human IR (1005 to 1310 residues) assessed as residual activity at 10 uM using KKSRGDYMTMQIG as substrate measured after 40 mins in presence of [gamma33P]ATP by scintillation counting method.
The test system of test [21] is Glycogen synthase kinase-3 beta (Homo sapiens), P49841 [UNDEFINED MUTATION]. Briefly: Inhibition of recombinant human GSK3beta H350L mutant (2 to end residues) assessed as residual activity at 10 uM using phospho GS2 peptide as substrate measured after 40 mins in presence of [gamma33P]ATP by scintillation counting method.
Test [22] concerns Epidermal growth factor receptor (Homo sapiens), P00533 [L861Q]. Briefly: Inhibition of recombinant human EGFR L861Q mutant (696 to end residues) assessed as residual activity at 10 uM using poly(Glu, Tyr) 4:1 as substrate measured after 40 mins in presence of [gamma33P]ATP by scintillation counting method.
Test [23] concerns SW-620. Description: Inhibition of colony formation in human SW620 cells at 50 nM after 14 days by crystal violet staining-based microscopic analysis. The format is functional. The conditions noted are these: SW-620, 336 h.

The term inhibition denotes the change of the read-out against control, counted positive when it falls.

Calls of active or inactive are those of the source. The rule behind the calls is not given here.

Ephrin type-B receptor 3 (Homo sapiens), sequence (P54753 whole entry, the tested form may be a part): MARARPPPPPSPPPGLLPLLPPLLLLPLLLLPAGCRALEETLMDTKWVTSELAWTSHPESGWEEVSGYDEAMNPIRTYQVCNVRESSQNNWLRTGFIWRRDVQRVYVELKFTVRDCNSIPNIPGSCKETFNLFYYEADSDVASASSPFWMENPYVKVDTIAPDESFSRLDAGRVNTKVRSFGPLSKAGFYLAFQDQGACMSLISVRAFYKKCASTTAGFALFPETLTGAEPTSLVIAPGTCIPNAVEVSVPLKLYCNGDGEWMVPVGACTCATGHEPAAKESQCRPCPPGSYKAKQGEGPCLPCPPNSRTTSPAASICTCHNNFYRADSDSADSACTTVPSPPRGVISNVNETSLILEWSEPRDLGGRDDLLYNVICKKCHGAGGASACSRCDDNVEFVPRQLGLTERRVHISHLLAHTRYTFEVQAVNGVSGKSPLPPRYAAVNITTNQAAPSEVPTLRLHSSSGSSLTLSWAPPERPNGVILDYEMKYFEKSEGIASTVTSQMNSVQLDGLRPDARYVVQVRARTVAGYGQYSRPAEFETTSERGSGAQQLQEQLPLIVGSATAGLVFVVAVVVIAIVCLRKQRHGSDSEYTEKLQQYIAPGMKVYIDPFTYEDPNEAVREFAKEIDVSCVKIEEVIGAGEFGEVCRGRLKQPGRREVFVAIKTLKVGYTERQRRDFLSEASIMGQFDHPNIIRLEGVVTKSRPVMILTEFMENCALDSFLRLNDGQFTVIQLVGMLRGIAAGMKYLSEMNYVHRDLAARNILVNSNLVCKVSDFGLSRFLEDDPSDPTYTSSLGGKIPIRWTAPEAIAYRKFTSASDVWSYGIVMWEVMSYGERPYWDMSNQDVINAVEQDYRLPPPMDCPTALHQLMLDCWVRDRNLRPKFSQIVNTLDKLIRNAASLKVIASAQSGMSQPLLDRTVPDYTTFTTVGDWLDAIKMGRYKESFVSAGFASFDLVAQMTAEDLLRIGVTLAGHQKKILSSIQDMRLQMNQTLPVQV
Ephrin type-B receptor 4 (Homo sapiens), sequence (P54760 whole entry, the tested form may be a part): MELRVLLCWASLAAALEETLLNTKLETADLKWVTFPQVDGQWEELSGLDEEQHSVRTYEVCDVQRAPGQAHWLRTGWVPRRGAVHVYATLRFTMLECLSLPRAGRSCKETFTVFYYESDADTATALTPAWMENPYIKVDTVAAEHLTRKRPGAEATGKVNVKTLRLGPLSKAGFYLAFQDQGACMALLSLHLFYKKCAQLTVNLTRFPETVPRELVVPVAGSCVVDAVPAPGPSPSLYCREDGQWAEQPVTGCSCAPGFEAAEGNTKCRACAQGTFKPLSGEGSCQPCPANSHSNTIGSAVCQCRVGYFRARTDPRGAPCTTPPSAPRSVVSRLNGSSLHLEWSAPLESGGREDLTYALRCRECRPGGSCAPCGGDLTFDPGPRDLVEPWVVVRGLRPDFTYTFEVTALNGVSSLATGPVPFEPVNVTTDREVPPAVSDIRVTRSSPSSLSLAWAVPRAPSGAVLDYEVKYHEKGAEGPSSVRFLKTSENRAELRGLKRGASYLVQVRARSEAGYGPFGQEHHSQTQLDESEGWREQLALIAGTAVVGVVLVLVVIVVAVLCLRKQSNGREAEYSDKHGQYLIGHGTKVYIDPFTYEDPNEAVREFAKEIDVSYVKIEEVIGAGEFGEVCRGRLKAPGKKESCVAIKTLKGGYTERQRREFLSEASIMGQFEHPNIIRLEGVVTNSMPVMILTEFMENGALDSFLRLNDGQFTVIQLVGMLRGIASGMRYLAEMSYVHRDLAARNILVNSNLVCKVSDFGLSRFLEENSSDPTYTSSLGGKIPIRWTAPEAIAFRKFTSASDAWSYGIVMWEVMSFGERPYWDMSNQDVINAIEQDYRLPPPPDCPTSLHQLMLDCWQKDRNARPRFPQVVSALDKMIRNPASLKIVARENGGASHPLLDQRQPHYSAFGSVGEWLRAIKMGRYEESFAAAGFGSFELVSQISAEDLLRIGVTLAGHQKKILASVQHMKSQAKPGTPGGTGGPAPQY
Mitogen-activated protein kinase 10 (Homo sapiens), sequence (P53779 whole entry): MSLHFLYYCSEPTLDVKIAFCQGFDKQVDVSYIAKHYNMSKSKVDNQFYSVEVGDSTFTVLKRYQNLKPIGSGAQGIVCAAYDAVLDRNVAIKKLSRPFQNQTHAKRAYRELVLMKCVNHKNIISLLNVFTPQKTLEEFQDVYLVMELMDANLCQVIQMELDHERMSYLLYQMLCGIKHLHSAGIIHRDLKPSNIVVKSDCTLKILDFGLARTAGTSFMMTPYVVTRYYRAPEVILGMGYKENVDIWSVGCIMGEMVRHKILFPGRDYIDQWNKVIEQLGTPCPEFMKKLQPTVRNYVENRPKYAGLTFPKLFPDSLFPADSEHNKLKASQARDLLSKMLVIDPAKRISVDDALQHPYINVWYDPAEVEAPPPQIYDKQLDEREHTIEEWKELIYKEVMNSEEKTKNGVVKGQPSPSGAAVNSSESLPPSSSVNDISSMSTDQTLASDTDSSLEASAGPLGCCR
Ribosomal protein S6 kinase alpha-3 (Homo sapiens), sequence (P51812 whole entry, the tested form may be a part): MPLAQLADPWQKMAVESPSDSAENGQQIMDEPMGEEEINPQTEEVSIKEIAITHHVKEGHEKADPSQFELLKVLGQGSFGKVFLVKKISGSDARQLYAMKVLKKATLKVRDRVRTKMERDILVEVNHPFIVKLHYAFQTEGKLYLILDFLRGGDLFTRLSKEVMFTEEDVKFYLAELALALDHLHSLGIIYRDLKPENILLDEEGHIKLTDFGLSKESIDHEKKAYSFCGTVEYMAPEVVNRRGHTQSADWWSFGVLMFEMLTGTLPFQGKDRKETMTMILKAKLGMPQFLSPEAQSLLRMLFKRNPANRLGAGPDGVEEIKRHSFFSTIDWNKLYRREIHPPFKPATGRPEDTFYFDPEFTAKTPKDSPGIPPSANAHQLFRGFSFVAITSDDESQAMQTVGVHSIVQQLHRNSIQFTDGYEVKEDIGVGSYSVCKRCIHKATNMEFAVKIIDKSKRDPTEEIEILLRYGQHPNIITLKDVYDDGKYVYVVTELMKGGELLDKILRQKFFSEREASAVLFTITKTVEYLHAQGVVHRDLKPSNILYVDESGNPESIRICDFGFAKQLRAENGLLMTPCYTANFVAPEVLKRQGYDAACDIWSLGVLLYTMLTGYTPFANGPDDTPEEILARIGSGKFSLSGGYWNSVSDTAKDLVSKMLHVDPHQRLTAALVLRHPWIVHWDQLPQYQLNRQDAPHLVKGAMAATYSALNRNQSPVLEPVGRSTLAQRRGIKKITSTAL
Ephrin type-A receptor 8 (Homo sapiens), sequence (P29322 whole entry, the tested form may be a part): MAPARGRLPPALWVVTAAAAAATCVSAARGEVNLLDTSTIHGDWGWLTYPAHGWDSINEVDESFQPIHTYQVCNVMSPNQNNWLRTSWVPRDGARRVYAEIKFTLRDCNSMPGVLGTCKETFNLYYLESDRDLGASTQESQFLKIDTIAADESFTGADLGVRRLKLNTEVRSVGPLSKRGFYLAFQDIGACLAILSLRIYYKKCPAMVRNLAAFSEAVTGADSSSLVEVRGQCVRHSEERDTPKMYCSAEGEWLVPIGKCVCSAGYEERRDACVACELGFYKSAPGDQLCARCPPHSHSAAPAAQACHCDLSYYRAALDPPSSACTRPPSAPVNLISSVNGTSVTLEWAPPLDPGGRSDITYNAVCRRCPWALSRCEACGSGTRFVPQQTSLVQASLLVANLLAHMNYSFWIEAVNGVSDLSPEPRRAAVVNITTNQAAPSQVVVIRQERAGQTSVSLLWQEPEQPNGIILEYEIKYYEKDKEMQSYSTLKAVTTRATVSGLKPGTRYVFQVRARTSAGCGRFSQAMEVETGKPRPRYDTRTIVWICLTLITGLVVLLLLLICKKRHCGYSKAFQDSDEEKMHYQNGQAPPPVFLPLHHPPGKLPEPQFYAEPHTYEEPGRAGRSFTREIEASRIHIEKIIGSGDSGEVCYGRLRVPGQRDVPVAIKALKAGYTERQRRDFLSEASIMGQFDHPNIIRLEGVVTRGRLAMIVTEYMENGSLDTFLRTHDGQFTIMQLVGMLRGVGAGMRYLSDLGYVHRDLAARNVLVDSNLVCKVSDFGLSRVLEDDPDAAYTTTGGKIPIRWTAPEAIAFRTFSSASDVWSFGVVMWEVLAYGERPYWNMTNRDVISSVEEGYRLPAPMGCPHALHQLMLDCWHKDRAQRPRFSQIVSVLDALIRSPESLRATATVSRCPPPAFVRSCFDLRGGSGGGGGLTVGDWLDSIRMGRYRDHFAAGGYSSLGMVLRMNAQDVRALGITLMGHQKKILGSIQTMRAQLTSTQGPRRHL
Tyrosine-protein kinase ITK/TSK (Homo sapiens), sequence (Q08881 whole entry, the tested form may be a part): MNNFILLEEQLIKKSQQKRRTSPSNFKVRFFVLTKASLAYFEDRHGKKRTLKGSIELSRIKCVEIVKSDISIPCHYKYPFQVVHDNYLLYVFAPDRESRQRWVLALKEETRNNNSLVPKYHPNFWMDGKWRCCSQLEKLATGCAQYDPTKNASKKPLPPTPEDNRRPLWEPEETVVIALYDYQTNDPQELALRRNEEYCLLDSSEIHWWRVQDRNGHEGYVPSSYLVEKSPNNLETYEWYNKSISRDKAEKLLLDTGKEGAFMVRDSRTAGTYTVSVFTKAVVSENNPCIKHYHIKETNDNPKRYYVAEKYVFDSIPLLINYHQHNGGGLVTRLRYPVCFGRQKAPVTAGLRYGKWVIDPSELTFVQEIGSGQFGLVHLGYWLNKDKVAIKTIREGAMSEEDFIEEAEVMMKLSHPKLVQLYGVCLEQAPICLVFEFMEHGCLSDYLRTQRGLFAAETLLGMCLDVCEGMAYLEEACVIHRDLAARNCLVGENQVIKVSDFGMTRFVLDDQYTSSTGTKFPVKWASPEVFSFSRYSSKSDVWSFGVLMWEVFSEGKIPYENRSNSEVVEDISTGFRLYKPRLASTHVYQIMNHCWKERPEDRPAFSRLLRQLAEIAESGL

Consider `Cc1cc(C)c(CNc2nc(Cl)nc3c2ncn3C2CCCC2)c(=O)[nH]1`, for which the Activity in test [1] was 102%; in test [2] it was 106%; in [4], 113%; in test [5] it was 102%; in test [6], 97%; in test [8] it was 63 to 75%. Besides, the Activity was found to be 130% in test [9]; 112% in test [10]; 110% in [11]; 142% in test [12]; 109% in test [13]; 114% in test [14]. For the same compound, the Activity in test [15] stood at 110%; in test [16], 93%; in test [17], 98.5%; in [18], 106%; in test [19] it was 100%; in [20] it was 116%. Further, the Activity is 112% in test [21] and 98.5% in test [22]. Also, the inhibition in test [3] is -10%. Also, in the test on SW-620 [7], the result was Active. In addition, the inhibition at 0.05 µM in the test on SW-620 [23] came out at 100%.

The values are drawn from ChEMBL document CHEMBL4311992, “Discovery of 3-(((9H-purin-6-yl)amino)methyl)-4,6-dimethylpyridin-2(1H)-one derivatives as novel tubulin polymerization inhibitors for treatment of cancer” (Eur J Med Chem, 2019).
